Measured values from patent publication US20230174521A1, “NOVEL DIACYLGLYCERIDE O-ACYLTRANSFERASE 2 INHIBITORS” (Merck Sharp & Dohme LLC, priority 2020, published 2023).

Biological target: T1, human DGAT2 (hDGAT2) (Homo sapiens, UniProt Q96PD7)
T1 construct: made in house; host or cells: Sf-9 insect cells (baculovirus infection); membrane fraction
T1 sequence (Q96PD7 1-388): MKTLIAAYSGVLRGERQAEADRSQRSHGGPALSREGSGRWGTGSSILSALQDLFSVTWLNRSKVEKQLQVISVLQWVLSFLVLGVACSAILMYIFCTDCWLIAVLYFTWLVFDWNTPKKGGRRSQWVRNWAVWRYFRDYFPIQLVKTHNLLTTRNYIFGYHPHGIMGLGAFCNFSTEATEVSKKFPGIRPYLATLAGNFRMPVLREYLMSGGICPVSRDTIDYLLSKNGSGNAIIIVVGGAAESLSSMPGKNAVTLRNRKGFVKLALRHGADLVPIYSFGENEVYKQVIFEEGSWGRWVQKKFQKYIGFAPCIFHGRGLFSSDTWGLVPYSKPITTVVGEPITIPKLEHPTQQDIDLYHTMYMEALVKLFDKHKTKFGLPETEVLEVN
Assay: DGAT2 enzymatic activity assay (LC/MS/MS detection of 13C18-triolein, Sf-9 membrane prep)
Format: biochemical
Details: hDGAT2 Sf-9 membrane, 25 μM diolein, 5 μM 13C oleoyl-CoA, rt
Protocol: Sf-9 insect cells were maintained in Grace's insect cell culture medium with 10% heated-inactivated fetal bovine serum, 1% Pluronic F-68 and 0.14 μg/ml Kanamycine sulfate at 27° C. in a shaker incubator. After infection with untagged baculovirus expressing human DGAT2 (hDGAT2) at multiplicity of infection (MOI) 3 for 48 hours, cells were harvested. Cell pellets were suspended in buffer containing 10 mM Tris-HCl pH 7.5, 1 mM EDTA, 250 mM sucrose and Complete Protease Inhibitor Cocktail (Sigma Aldrich), and sonicated on ice. Cell debris were removed by centrifugation at 2000×g for 15 minutes. Membrane fractions were isolated by ultracentrifugation (100,000×g), resuspended in the same buffer, and frozen (−80° C.) for later use. The protein concentration was determined with the Pierce™ BCA Protein Assay Kit (Thermo Fisher Scientific). Expression of protein levels was analyzed by immunoblotting with rabbit anti-DGAT2 antibody (Abcam, ab102831) and donkey anti-rabbit IgG H&L Alexa Fluor® 647 (Abcam, ab150075) followed by detection using Typhoon FLA9000 (GE Healthcare).
LC/MS/MS analyses were performed using Thermal Fisher's LX4-TSQ Vantage system. This system consists of an Agilent binary high-performance liquid chromatography (HPLC) pumps and a TSQ Vantage triple quadrupole MS/MS instrument. For each sample, 2 μL samples from the top organic layer of in-plate liquid-liquid extraction were injected onto a Thermo Betabasic C4 column (2.1 mm×20 mm, 5 μm particle size). The samples were then eluted using the following conditions; mobile phase: Isopropanol: acetonitrile/10 mM ammonium formate=50/35/15 (v/v/v), flow rate: 0.8 mL/min, temperature: 25° C. Data was acquired in positive mode using a heated electrospray ionization (HESI) interface. The operational parameters for the TSQ Vantage MS/MS instrument were a spray voltage of 3000 V, capillary temperature of 280° C., vaporizer temperature 400° C., sheath gas 45 arbitrary unit, Aux gas 10 arbitrary units, S-lens 165 and collision gas 1.0 mTorr. […] (SRM) chromatograms of ^13C18-triolein (Q1: 920.8>Q3:621.3) and internal standard ^13C21-triolein (Q1: 923.8>Q3:617.3) were collected for 33 sec. The peak area was integrated by Xcalibur Quan software. The ratio between the ^13C18triolein generated in the reaction and spiked in internal standard ^13C21-triolein was used to generate percentage inhibition and IC50 values. Compound percentage inhibition was calculated by the following formula: Inhibition %=1−[(compound response−low control)/(high control−low control)]×100%. Potent compounds were titrated and IC50 were calculated by 4 parameter sigmoidal curve fitting formula.
DGAT2 activity was determined by measuring the amount of enzymatic product ^13C18-triolein (^13C-1,2,3-Tri(cis-9-octadecenoyl)glycerol) using the membrane prep mentioned above. The assay was carried out in ABgene 384-well assay plates in a final volume of 25 μL at rt. The assay mixture contained the following: assay buffer (100 mM Tris.Cl, pH 7.0, 20 mM MgCl2, 5% ethanol), 25 μM of diolein, 5 μM of ^13C oleoyl-CoA and 8 ng/μL of DGAT2 membrane.

| IC50 | SMILES |
| --- | --- |
| 16 nM | CC(C)c1nn(-c2cccc(OC(F)F)c2)c2ncc(C(=O)N[C@@]3(C)CCS(=O)(=O)C3)cc12 [Example 11, (S)-1-(3-(difluoromethoxy)phenyl)-3-isopropyl-N-(3-methyl-1,1-dioxidotetrahydrothlophen-3-yl)-1H-pyrazolo[3,4-b]pyridine-5-carboxamide] |
| 54 nM | CC(O)c1nn(-c2cccc(OC(F)F)c2)c2ncc(C(=O)NC3(C)CS(=O)(=O)C3)cc12 (single isomer, unassigned) [Example 38b, l-(3-(difluoromethoxy)phenyl)-3-(l-hydroxyethyl)-N-(3-methyl-1,1-dioxidothietan-3-yl)-1H-pyrazolo[3,4-b]pyridine-5-carboxamide] |
| 14 nM | CC1(NC(=O)c2cnc3c(c2)c(C(C)(C)O)nn3-c2cc(OC(F)(F)F)ccc2F)CS(=O)(=O)C1 [Example 40, l-(2-fluoro-5-(trifluoromethoxy)phenyl)-3-(2-hydroxypropan-2-yl)-N-(3-methyl-1,1-dioxidothietan-3-yl)-1H-pyrazolo[3,4-b]pyridine-5-carboxamide] |
| 3510 nM | COCC(C)NC(=O)c1ccc2c(c1)c(-c1ccccc1Cl)cn2-c1ccc(F)cc1 (stereo not shown) [Example 10, 3-(2-chlorophenyl)-1-(4-fluorophenyl)-N-(1-methoxypropan-2-yl)-1H-indole-5-carboxamide] |
| 2.7 nM | CC1(NC(=O)c2cnc3c(c2)c(C(C)(C)O)nn3-c2cc(OCC(F)F)ncc2F)CCS(=O)(=O)CC1 [Example 44, 1-(2-(2,2-difluoroethoxy)-5-fluoropyridin-4-yl)-3-(2-hydroxypropan-2-yl)-N-(4-methyl-1,1-dioxidotetrahydro-2H-thiopyran-4-yl)-1H-pyrazolo[3,4-b]pyridine-5-carboxamide] |
| 83 nM | CC(O)c1nn(-c2cccc(OC(F)F)c2)c2ccc(C(=O)N[C@@]3(C)CCS(=O)(=O)C3)cc12 (stereo partly drawn) [Example 34, 1-(3-(difluoromethoxy)phenyl)-3-(l-hydroxyethyl)-N-((S)-3-methyl-1,1-dioxidotetrahydrothiophen-3-yl)-1H-indazole-5-carboxamide] |
| 38 nM | CC(O)c1nn(-c2cccc(OC(F)F)c2)c2ncc(C(=O)NC3(C)CS(=O)(=O)C3)cc12 (single isomer, unassigned) [Example 38a, 1-(3-(difluoromethoxy)phenyl)-3-(l-hydroxyethyl)-N-(3-methyl-1,1-dioxidothietan-3-yl)-1H-pyrazolo[3,4-b]pyridine-5-carboxamide] |
| 6.7 nM | CCCc1nn(-c2cccc(OC(F)F)c2)c2ncc(C(=O)N[C@@]3(C)CCS(=O)(=O)C3)cc12 [Example 15, (S)-1-(3-(difluoromethoxy)phenyl)-N-(3-methyl-1,1-dioxidotetrahydrothiophen-3-yl)-3-propyl-1H-pyrazolo[3,4-b]pyridine-5-carboxamide] |
| 4320 nM | COc1ccc(-n2nc(NCCc3ccccc3)c3cc(C(=O)NCCCN(C)C)ccc32)cc1 [Example 52, N-(3-(dimethylamino)propyl)-1-(4-methoxyphenyl)-3-(phenethylamino)-1H-indazole-5-carboxamide] |
| 389 nM | Cn1nccc1-n1nc(-c2ccc(F)cc2)c2cc(C(=O)NC3(C)CS(=O)(=O)C3)ccc21 [Example 3, 3-(4-fluorophenyl)-N-(3-methyl-1,1-dioxo-thietan-3-yl)-1-(2-methylpyrazol-3-yl)indazole-5-carboxamide] |
